# Results reported in patent US20230091810A1, “FIRST-IN-CLASS OF SHMT2 AND MTHFD2 INHIBITORS AS ANTITUMOR AGENTS” (Duquesne University of the Holy Spirit, priority 2017, published 2023).
# pIC50: −log10 of the molar value. Where two headings read alike, the source gives them in different places.
# Legend:
# Assay type in all cases: cell-based, human
# [1] = system: HCT116 (CTC); assay: proliferation assay, HCT116 colon tumor cells; details: folate-/glycine-free RPMI1640 with 25 nM leucovorin, 96 h, read-out: IC50s (SE) HCT116 (CTC)
# Protocol: (§1) Proliferation assays were performed with engineered Chinese hamster ovary (CHO) cell lines R2 (transporter-null), PC43-10 (expresses RFC only), RT16 (FRα only), and R2/PCFT4 (PCFT only) cultured in folate-/glycine-free RPMI1640 supplemented with 25 nM leucovorin. Additional results are shown for HCT116 (colon tumor cells (CTC)), IGROV1 (epithelial ovarian cancer (EOC) cells), H460 (non-small cell lung cancer (NSCLC) cells), MIAPaCa-2 (pancreatic cancer (PaC) cells), and HPAC (PaC).
# (§2) Cell culture and proliferation/protection assays. The HCT116 cell lines including the serine hydroxymethyltransferase (SHMT) 1, SHMT2, and methylene THF dehydrogenase 2 (MTHFD2) knockout (KO) cells were previously described (47,53). The H460 cell line was obtained from the American Type Culture Collection (Manassas, VA), whereas the MIA PaCa-2 cells were provided by Dr. Yubin Ge (Karmanos Cancer Institute). Cell lines were verified by STR analysis by Genetica DNA Laboratories (Burlington, NC). MTXRIIOua^R2-4 (i.e. R2) Chinese hamster ovary (CHO) cells were generously provided by Dr. Wayne Flintoff (University of Western Ontario) (54). From this parental R2 cell line, human RFC and PCFT were individually transfected to generate the isogenic CHO cell lines designated PC43-10 (RFC) and R2/PCFT4 (PCFT) (55-57). Human tumor cell lines were cultured in folate-free RPMI supplemented with 10% dialyzed fetal bovine serum (Sigma-Aldrich), 1% penicillin/streptomycin solution, 2 mM L-glutamine, and 25 nM leucovorin in a humidified atmosphere at 37° C. in the presence of 5% CO2 and 95% air. The CHO cell lines were cultured in alpha-minimal essential medium (alpha-MEM) supplemented with 10% bovine calf serum, 1% penicillin/streptomycin solution, and 2 mM L-glutamine. Additionally, the transfected CHO cell lines (i.e. R2/PCFT4 and PC43-10) were maintained under continuous selection with 1 mg/ml of G418. […]
# [2] = system: IGROV1 (EOC); assay: proliferation assay, IGROV1 epithelial ovarian cancer cells; details: folate-/glycine-free RPMI1640 with 25 nM leucovorin, read-out: IC50s (SE) IGROV1 (EOC)
# Protocol: as §1
# (§3) For proliferation assays of the HCT116, H460, and MIA PaCa2 tumor cell lines, the cells were plated in 96-well plates in an identical manner to the CHO experiments, except that the maximal drug concentration was increased to 10 µM. Glycine/nucleoside protection experiments in CHO and tumor cell lines were performed in folate- and glycine-free RPMI 1640/10% dialyzed fetal bovine serum supplemented with 25 nM leucovorin without additions, or in the presence of adenosine (60 µM), thymidine (10 µM), glycine (130 µM) and/or 5-aminoimidazole-4-carboxamide (AICA) (320 µM). Growth of metabolite-treated cells was normalized to controls treated with metabolites and vehicle (i.e., DMSO) both singly and in combination. Treatments with all metabolites were performed in parallel on the same plate for a given drug.
# [3] = system: H460 (NSCLC); assay: proliferation assay, H460 non-small cell lung cancer cells; details: folate-/glycine-free RPMI1640 with 25 nM leucovorin, 96 h, read-out: IC50s (SE) H460 (NSCLC)
# Protocol: as §1, §2
# [4] = system: MIA PaCa-2 (PaC); assay: proliferation assay, MIA PaCa-2 pancreatic cancer cells; details: folate-/glycine-free RPMI1640 with 25 nM leucovorin, 96 h, read-out: IC50s (SE) MIA PaCa-2 (PaC)
# Protocol: as §1
# Cell culture and proliferation/protection assays. The HCT116 cell lines including the serine hydroxymethyltransferase (SHMT) 1, SHMT2, and methylene THF dehydrogenase 2 (MTHFD2) knockout (KO) cells were previously described (47,53). The H460 cell line was obtained from the American Type Culture Collection (Manassas, VA), whereas the MIA PaCa-2 cells were provided by Dr. Yubin Ge (Karmanos Cancer Institute). Cell lines were verified by STR analysis by Genetica DNA Laboratories (Burlington, NC). MTXRIIOua^R2-4 (i.e. R2) Chinese hamster ovary (CHO) cells were generously provided by Dr. Wayne Flintoff (University of Western Ontario) (54). From this parental R2 cell line, human RFC and PCFT were individually transfected to generate the isogenic CHO cell lines designated PC43-10 (RFC) and R2/PCFT4 (PCFT) (55-57). Human tumor cell lines were cultured in folate-free RPMI supplemented with 10% dialyzed fetal bovine serum (Sigma-Aldrich), 1% penicillin/streptomycin solution, 2 mM L-glutamine, and 25 nM leucovorin in a humidified atmosphere at 37° C. in the presence of 5% CO2 and 95% air. The CHO cell lines were cultured in alpha-minimal essential medium (alpha-MEM) supplemented with 10% bovine calf serum, 1% penicillin/streptomycin solution, and 2 mM L-glutamine. Additionally, the transfected CHO cell lines (i.e. R2/PCFT4 and PC43-10) were maintained under continuous selection with 1 mg/ml of G418.
# as §3
# [5] = system: HPAC (PaC); assay: proliferation assay, HPAC pancreatic cancer cells; details: folate-/glycine-free RPMI1640 with 25 nM leucovorin, read-out: IC50s (SE) HPAC (PaC)
# Protocol: as §1, §3
# [6] = system: H460 cells; assay: glycine/nucleoside protection of growth inhibition in H460 cells; details: for protection from growth inhibition by combined adenosine and glycine: adenosine 60 µM plus glycine 130 µM; for protection from growth inhibition by glycine or adenosine alone: glycine 130 µM or adenosine 60 µM, singly
# Protocol: We also tested the protective effects of AICA (320 µM) which is metabolized to AICAR (ZMP) (AICARFTase substrate), thus circumventing the GARFTase step in de novo purine biosynthesis (27) (see FIG. 1). […] Analogous results were obtained with HCT116 and MIA PaCa-2 tumor cells (see FIG. 14).
# as §3
"pIC50 ([1]; Homo sapiens, HCT-116)","pIC50 ([2]; Homo sapiens, IGROV-1)","pIC50 ([3]; Homo sapiens, NCI-H460)","pIC50 ([4]; Homo sapiens, MIA PaCa-2)","pIC50 ([5]; Homo sapiens, HPAC)",Compound,pIC50 [1],pIC50 [2],pIC50 [3],pIC50 [4],pIC50 [5],protection from growth inhibition by combined adenosine and glycine [6],protection from growth inhibition by glycine or adenosine alone [6],reversal of growth inhibition by AICA (with glycine) ([6]; AICA 320 µM with glycine)
–,–,–,–,–,"(2-amino-4-oxo-3,4-dihydro-5H-pyrrolo[3,2-d]pyrimidin-5-yl)butyl)-2-fluorobenzoyl)-L-glutamic acid [AGF347]",6.36,7.21,6.67,5.86,6.12,substantially protective,neither glycine nor adenosine alone was fully protective,–
5.64,6.35,6.34,5.44,6.52,Nc1nc2ccn(CCCc3ccc(C(=O)N[C@@H](CCC(=O)O)C(=O)O)cc3)c2c(=O)[nH]1 [AGF291],–,–,–,–,–,substantially protective,neither glycine nor adenosine alone was fully protective,–
–,–,–,–,–,Nc1nc2ccn(CCCCCc3ccc(C(=O)N[C@@H](CCC(=O)O)C(=O)O)s3)c2c(=O)[nH]1 [AGF320],6.13,6.40,6.24,5.64,6.72,substantially protective,neither glycine nor adenosine alone was fully protective,modestly (and incompletely) reversed
